From ChEMBL document CHEMBL6092216, “Development of α-Helical Antimicrobial Peptides with Imperfect Amphipathicity for Superior Activity and Selectivity” (J Med Chem, 2024)
Activity calls are given as the source filed them. The calls are words filed in the database; no cut-off is given here.

How the values were obtained:
Staphylococcus aureus [1] = experiment: Antibacterial activity against Staphylococcus aureus ATCC 6538 assessed as inhibition of bacterial growth by tube microdilution assay; assay type: functional
Erythrocyte = experiment: Induction of hemolysis in mouse red blood cells at 1.56 to 100 ug/ml incubated for 1 hr; assay type: toxicity, cell-based; conditions: dose 1.56-100 µg/ml
Acinetobacter baumannii [2] = experiment: Antibacterial activity against Acinetobacter baumannii 10769 assessed as inhibition of bacterial growth incubated for 24 hrs by tube microdilution assay; assay type: functional
Acinetobacter baumannii [3] = experiment: Antibacterial activity against Acinetobacter baumannii 19110 assessed as inhibition of bacterial growth incubated for 24 hrs by tube microdilution assay; assay type: functional
Escherichia coli = experiment: Antibacterial activity against Escherichia coli 0894 assessed as inhibition of bacterial growth incubated for 24 hrs by tube microdilution assay; assay type: functional
Pseudomonas aeruginosa [4] = experiment: Antibacterial activity against Pseudomonas aeruginosa 52097 assessed as inhibition of bacterial growth incubated for 24 hrs by tube microdilution assay; assay type: functional
Pseudomonas aeruginosa [5] = experiment: Antibacterial activity against Pseudomonas aeruginosa 90068 assessed as inhibition of bacterial growth incubated for 24 hrs by tube microdilution assay; assay type: functional
Staphylococcus aureus [6] = experiment: Antibacterial activity against Staphylococcus aureus 08310 assessed as inhibition of bacterial growth incubated for 24 hrs by tube microdilution assay; assay type: functional
Staphylococcus aureus [7] = experiment: Antibacterial activity against Staphylococcus aureus 15192 assessed as inhibition of bacterial growth incubated for 24 hrs by tube microdilution assay; assay type: functional
Staphylococcus aureus [8] = experiment: Antibacterial activity against Staphylococcus aureus 11842 assessed as inhibition of bacterial growth incubated for 24 hrs by tube microdilution assay; assay type: functional
Staphylococcus aureus [9] = experiment: Antibacterial activity against Staphylococcus aureus 220823 assessed as inhibition of bacterial growth incubated for 24 hrs by tube microdilution assay; assay type: functional
Staphylococcus aureus [10] = experiment: Antibacterial activity against Staphylococcus aureus 15775 assessed as inhibition of bacterial growth incubated for 24 hrs by tube microdilution assay; assay type: functional
Staphylococcus aureus [11] = experiment: Antibacterial activity against methicillin-resistant Staphylococcus aureus Z assessed as inhibition of bacterial growth incubated for 24 hrs by tube microdilution assay; assay type: functional
Staphylococcus aureus [12] = experiment: Antibacterial activity against methicillin-resistant Staphylococcus aureus 12 assessed as inhibition of bacterial growth incubated for 24 hrs by tube microdilution assay; assay type: functional
Staphylococcus aureus [13] = experiment: Antibacterial activity against methicillin-resistant Staphylococcus aureus 21 assessed as inhibition of bacterial growth incubated for 24 hrs by tube microdilution assay; assay type: functional
Staphylococcus aureus [14] = experiment: Antibacterial activity against methicillin-resistant Staphylococcus aureus 22 assessed as inhibition of bacterial growth incubated for 24 hrs by tube microdilution assay; assay type: functional
Staphylococcus aureus [15] = experiment: Antibacterial activity against methicillin-resistant Staphylococcus aureus 41 assessed as inhibition of bacterial growth incubated for 24 hrs by tube microdilution assay; assay type: functional
Staphylococcus aureus [16] = experiment: Antibacterial activity against methicillin-resistant Staphylococcus aureus 52 assessed as inhibition of bacterial growth incubated for 24 hrs by tube microdilution assay; assay type: functional
Pseudomonas aeruginosa [17] = experiment: Antibiofilm activity against Pseudomonas aeruginosa ATCC 27853 assessed as inhibition of biofilm formation at 1X to 10XMIC incubated for 24 hrs by crystal violet staining based analysis; assay type: functional, organism-based
Acinetobacter baumannii [18] = experiment: Antibiofilm activity against Acinetobacter baumannii ATCC 19606 assessed as inhibition of biofilm formation at 1X to 10XMIC incubated for 24 hrs by crystal violet staining based analysis; assay type: functional, organism-based
Pseudomonas aeruginosa [19] = experiment: Antibiofilm activity against preformed Pseudomonas aeruginosa ATCC 27853 biofilms assessed as biofilm eradication at 1X to 10XMIC incubated for 24 hrs by crystal violet staining based analysis; assay type: functional, organism-based
Acinetobacter baumannii [20] = experiment: Antibiofilm activity against preformed Acinetobacter baumannii ATCC 19606 biofilms assessed as biofilm eradication at 1X to 10XMIC incubated for 24 hrs by crystal violet staining based analysis; assay type: functional, organism-based
Staphylococcus aureus [21] = experiment: Antibiofilm activity against preformed Staphylococcus aureus ATCC 6538 biofilms assessed as biofilm eradication at 1X to 10XMIC incubated for 24 hrs by crystal violet staining based analysis; assay type: functional, organism-based
Pseudomonas aeruginosa [22] = experiment: Antipersister-activity against Pseudomonas aeruginosa ATCC 27853 assessed as elimination of persister cells preincubated adherent persistent cells with colistin for 24 hrs followed by incubation with drug for 12 hrs; assay type: functional, organism-based
Staphylococcus aureus [23] = experiment: Antipersister-activity against Staphylococcus aureus ATCC 6538 assessed as elimination of persister cells preincubated adherent persistent cells with vancomycin for 24 hrs followed by incubation with drug for 12 hrs; assay type: functional, organism-based
Cell membrane [24] = experiment: Induction of membrane permeabilization in Escherichia coli 0894 assessed as increase in fluorescence intensity at 1X to 10XMIC measured for 90 mins by propidium iodide staining based fluorescence analysis; assay type: subcellular
Cell membrane [25] = experiment: Induction of membrane permeabilization in Acinetobacter baumannii 0357 assessed as increase in fluorescence intensity at 1X to 10XMIC measured for 90 mins by propidium iodide staining based fluorescence analysis; assay type: subcellular
Cell membrane [26] = experiment: Induction of membrane permeabilization in Pseudomonas aeruginosa 17068 assessed as increase in fluorescence intensity at 1X to 10XMIC measured for 90 mins by propidium iodide staining based fluorescence analysis; assay type: subcellular
Cell membrane [27] = experiment: Induction of membrane permeabilization in Staphylococcus aureus ATCC 6538 assessed as increase in fluorescence intensity at 1X to 10XMIC measured for 90 mins by propidium iodide staining based fluorescence analysis; assay type: subcellular
Pseudomonas aeruginosa [28] = experiment: Induction of bacterial cell rupture in Pseudomonas aeruginosa ATCC 27853 assessed as bacterial membrane damage with visible surface irregularities and protrusions at 5XMIC measured after 30 mins scanning electron microscopy; assay type: functional, organism-based
Pseudomonas aeruginosa [29] = experiment: Induction of bacterial cell rupture in Pseudomonas aeruginosa ATCC 27853 assessed as induction of internal perturbations and breaks along the membrane at 5XMIC measured after 30 mins transmission electron microscopy; assay type: functional, organism-based
Staphylococcus aureus [30] = experiment: Induction of bacterial cell rupture in Staphylococcus aureus ATCC 6538 assessed as membrane rupture, roughening and blebbing of membrane at 5XMIC measured after 30 mins by scanning electron microscopy; assay type: functional, organism-based
Staphylococcus aureus [31] = experiment: Induction of bacterial cell rupture in Staphylococcus aureus ATCC 6538 assessed as membrane rupture, roughening and blebbing of membrane at 5XMIC measured after 30 mins by transmission electron microscopy; assay type: functional, organism-based
Staphylococcus aureus [32] = experiment: Bactericidal activity against Staphylococcus aureus ATCC 6538 assessed as elimination of bacterial cells at 5XMIC measured within 1 hr by killing kinetic assay; assay type: functional
Staphylococcus aureus [33] = experiment: Bactericidal activity against Staphylococcus aureus ATCC 6538 assessed as elimination of bacterial cells at 5X to 10X MIC measured within 3 hrs by killing kinetic assay; assay type: functional
Pseudomonas aeruginosa [34] = experiment: Bactericidal activity against Pseudomonas aeruginosa ATCC 27853 assessed as bacterial cell killing measured after 60 passages; assay type: functional, organism-based
Pseudomonas aeruginosa [35] = experiment: Ratio of MIC for antibacterial activity against Pseudomonas aeruginosa ATCC 27853 measured following incubation of drug with mouse plasma for 8 hrs to MIC for antibacterial activity against Pseudomonas aeruginosa ATCC 27853; assay type: functional
Staphylococcus aureus [36] = experiment: Ratio of MIC for antibacterial activity against Staphylococcus aureus ATCC 6538 measured following incubation of drug with mouse plasma for 8 hrs to MIC for antibacterial activity against Staphylococcus aureus ATCC 6538; assay type: functional
[37] = Toxicity against C57BL/6J mouse assessed as behavioural changes at 10 to 20 mg/kg, iv measured for 48 hrs post-injection; assay type: organism-based; conditions: in vivo, dose 10-20 mg/kg
Staphylococcus aureus [38] = experiment: Antibacterial activity against Staphylococcus aureus ATCC 6538 infected in BALB/c mouse assessed as inhibition of bacterial colonization on wounded skin at 2 mg/ml applied on skin and measured after 2 hrs relative to control; assay type: functional

H-RRGIKKFIKKVKKVKKAI-OH
MIC (Staphylococcus aureus [1]): 2.34 µg/mL | Activity (Erythrocyte): Non-toxic | MIC (Acinetobacter baumannii [2]): 2.34 µg/mL | MIC (Acinetobacter baumannii [3]): 2.34 µg/mL | MIC (Escherichia coli): 9.37 µg/mL | MIC (Pseudomonas aeruginosa [4]): 1.17 µg/mL | MIC (Pseudomonas aeruginosa [5]): 1.17 µg/mL | MIC (Staphylococcus aureus [6]): 2.34 µg/mL | MIC (Staphylococcus aureus [7]): 2.34 µg/mL | MIC (Staphylococcus aureus [8]): 2.34 µg/mL | MIC (Staphylococcus aureus [9]): 2.34 µg/mL | MIC (Staphylococcus aureus [10]): 2.34 µg/mL | MIC (Staphylococcus aureus [11]): 2.34 µg/mL | MIC (Staphylococcus aureus [12]): 2.34 µg/mL | MIC (Staphylococcus aureus [13]): 2.34 µg/mL | MIC (Staphylococcus aureus [14]): 2.34 µg/mL | MIC (Staphylococcus aureus [15]): 2.34 µg/mL | MIC (Staphylococcus aureus [16]): 2.34 µg/mL | Activity (Pseudomonas aeruginosa [17]): Dose-dependent-effect | Activity (Acinetobacter baumannii [18]): Dose-dependent-effect | Activity (Pseudomonas aeruginosa [19]): Active | Activity (Acinetobacter baumannii [20]): Active | Activity (Staphylococcus aureus [21]): Active | Activity (Pseudomonas aeruginosa [22]): Dose-dependent-effect | Activity (Staphylococcus aureus [23]): Dose-dependent-effect | Activity (Cell membrane [24]): Dose-dependent-effect | Activity (Cell membrane [25]): Dose-dependent-effect | Activity (Cell membrane [26]): Dose-dependent-effect | Activity (Cell membrane [27]): Dose-dependent-effect | Activity (Pseudomonas aeruginosa [28]): Active | Activity (Pseudomonas aeruginosa [29]): Active | Activity (Staphylococcus aureus [30]): Active; Roughening And Blebbing Of Membrane Is Less Pronounced Than In Pseudomonas Aeruginosa | Activity (Staphylococcus aureus [31]): Active; Roughening And Blebbing Of Membrane Is Less Pronounced Than In Pseudomonas Aeruginosa | Activity (Staphylococcus aureus [32]): 99.7% | Activity (Staphylococcus aureus [33]): 100% | Activity (Pseudomonas aeruginosa [34]): Active | Ratio (Pseudomonas aeruginosa [35]): 4 | Ratio (Staphylococcus aureus [36]): 4 | Activity [37]: Non-toxic | inhibition in vivo at 2000 µg/mL (Staphylococcus aureus [38]): 82.4%
